Data taken from ChEMBL document CHEMBL5038679, “Fluoroalkylation of Dextromethorphan Improves CNS Exposure and Metabolic Stability” (ACS Med Chem Lett, 2022).
In brackets after ≈: the same amount, converted by molar mass.

Columns and labels:
[1] = Unbound brain-to-plasma concentration ratio in Sprague-Dawley rat; type: ADME, cell-free; details: read-out: K(p,uu,brain)
[2] = Half life in Sprague-Dawley rat brain at 2.5 mg/kg, po measured after 24 hrs by LC-MS/MS analysis; type: ADME, organism-based
[3] = Cmax in Sprague-Dawley rat plasma at 2.5 mg/kg, po measured after 24 hrs by LC-MS/MS analysis; type: ADME, organism-based; design: route oral, dose 2.5 mg/kg, time 24 hrs
[4] = Aqueous solubility of compound in universal buffer at pH 7.4 at 100 uM incubated for 1.5 hrs under shaking condition by LC-MS/MS analysis; type: physicochemical
[5] = AUC in Sprague-Dawley rat brain at 2.5 mg/kg, po measured after 24 hrs by LC-MS/MS analysis; type: ADME, organism-based; design: route oral, time 24 hrs, dose 2.5 mg/kg
[6] = AUC in Sprague-Dawley rat plasma at 2.5 mg/kg, po measured after 24 hrs by LC-MS/MS analysis; type: ADME, organism-based; design: route oral, time 24 hrs, dose 2.5 mg/kg
[7] = Half life in Sprague-Dawley rat plasma at 2.5 mg/kg, po measured after 24 hrs by LC-MS/MS analysis; type: ADME, organism-based
[8] = in vitro; details: human, liver microsomes
[9] = Cmax in Sprague-Dawley rat brain at 2.5 mg/kg, po measured after 24 hrs by LC-MS/MS analysis; type: ADME, organism-based; design: route oral, time 24 hrs, dose 2.5 mg/kg
[10] = Clearance in Sprague-Dawley rat plasma at 2.5 mg/kg, po measured after 24 hrs by LC-MS/MS analysis; type: ADME, organism-based
[11] = Stability in human liver microsomes assessed as half life at 10 uM measured upto 120 mins by LC-MS/MS analysis; type: ADME, Microsome
[12] = Aqueous solubility of compound in universal buffer at pH 3 at 100 uM incubated for 1.5 hrs under shaking condition by LC-MS/MS analysis; type: physicochemical
[13] = molecular target: T1, Sodium-dependent serotonin transporter (Homo sapiens, UniProt P31645); assay: biochemical; type: cell-based, HEK
Description: Displacement of [3H]-Citalopram from SERT receptor (unknown origin) expressed in HEK cell membrane incubated for 2 hrs by liquid scintillation counter analysis

[14] = molecular target: Sigma intracellular receptor 2 (Homo sapiens, UniProt Q5BJF2); assay: Displacement of […] from sigma-2 receptor (unknown origin) expressed in HEK cell membrane incubated for 2 hrs by liquid scintillation counter analysis
[15] = in vitro; details: dog, MDCK-MDR1
Description: Apparent permeability in dog MDCK-MDR1 cells from basal to apical side measured after 30 to 120 mins by LC-MS analysis

[16] = molecular target: T1, Sodium-dependent serotonin transporter; type: cell-based, HEK293
[17] = Efflux ratio of apparent permeability across basolateral to apical side over apical to basolateral side in dog MDCK-MDR1 cells measured after 30 to 120 mins by LC-MS analysis; type: ADME, cell-based, Canis lupus familiaris; details: time 30-120 min
[18] = molecular target: Sigma non-opioid intracellular receptor 1 (Homo sapiens, UniProt Q99720); assay: Displacement of […] from sigma-1 receptor (unknown origin) expressed in HEK cell membrane incubated for 2 hrs by liquid scintillation counter analysis
[19] = molecular target: Glutamate [NMDA] receptor; assay: Displacement of […] from NMDA receptor (unknown origin) expressed in HEK cell membrane incubated for 2 hrs by liquid scintillation counter analysis
[20] = molecular target: hERG (KCNH2) (Homo sapiens, UniProt Q12809); assay: Inhibition of human ERG at 10 uM measured after 15 mins by plate reader method relative to control; type: toxicity
[21] = molecular target: T2, Sodium-dependent noradrenaline transporter (Homo sapiens, UniProt P23975); assay: Displacement of […] from NET (unknown origin) expressed in HEK cell membrane incubated for 2 hrs by liquid scintillation counter analysis
[22] = molecular target: T2, Sodium-dependent noradrenaline transporter; assay: Inhibition of human NET expressed in human HEK293 cells assessed as inhibition of substrate transport measured after 1 hr by flourescence based plate reader assay; type: cell-based
[23] = in vitro; details: dog, MDCK-MDR1; remark: listed apart in the source
Description: Apparent permeability in dog MDCK-MDR1 cells from apical to basal side measured after 30 to 120 mins by LC-MS analysis

[24] = Protein binding in Sprague-Dawley rat plasma assessed as unbound fraction at 20 uM by NMR analysis; type: ADME, cell-free
[25] = Protein binding in Sprague-Dawley rat brain plasma assessed as unbound fraction at 5 uM measured after 4 hrs by LC-MS analysis; type: ADME, tissue-based
[26] = Volume of distribution in Sprague-Dawley rat at 2.5 mg/kg, po measured after 24 hrs by LC-MS/MS analysis; type: ADME, organism-based; details: in vivo

T1 sequence (P31645 whole entry): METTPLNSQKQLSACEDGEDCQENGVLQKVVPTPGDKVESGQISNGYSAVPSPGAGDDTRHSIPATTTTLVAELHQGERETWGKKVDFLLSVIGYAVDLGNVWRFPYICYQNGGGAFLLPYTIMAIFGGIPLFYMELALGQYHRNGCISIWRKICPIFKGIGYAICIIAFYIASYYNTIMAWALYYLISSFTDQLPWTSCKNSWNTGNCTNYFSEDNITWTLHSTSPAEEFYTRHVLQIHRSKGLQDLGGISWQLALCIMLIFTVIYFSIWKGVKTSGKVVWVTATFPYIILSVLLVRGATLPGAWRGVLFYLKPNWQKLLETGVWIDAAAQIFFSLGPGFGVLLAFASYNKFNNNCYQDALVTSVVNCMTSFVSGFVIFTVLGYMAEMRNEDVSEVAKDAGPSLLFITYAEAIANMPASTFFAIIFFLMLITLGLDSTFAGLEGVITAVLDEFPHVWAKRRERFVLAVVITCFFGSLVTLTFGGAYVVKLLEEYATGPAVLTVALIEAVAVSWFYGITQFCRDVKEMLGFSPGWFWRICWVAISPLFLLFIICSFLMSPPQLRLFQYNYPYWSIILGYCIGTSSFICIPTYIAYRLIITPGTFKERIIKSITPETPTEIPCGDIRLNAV
Sequence of Sigma non-opioid intracellular receptor 1 (Q99720 whole entry): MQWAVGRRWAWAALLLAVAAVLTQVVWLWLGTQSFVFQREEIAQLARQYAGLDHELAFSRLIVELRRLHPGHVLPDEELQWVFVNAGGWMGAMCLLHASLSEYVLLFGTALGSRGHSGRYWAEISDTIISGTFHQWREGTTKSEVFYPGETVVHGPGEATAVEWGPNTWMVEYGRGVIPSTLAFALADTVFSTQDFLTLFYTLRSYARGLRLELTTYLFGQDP
Sequence of hERG (KCNH2) (Q12809 whole entry): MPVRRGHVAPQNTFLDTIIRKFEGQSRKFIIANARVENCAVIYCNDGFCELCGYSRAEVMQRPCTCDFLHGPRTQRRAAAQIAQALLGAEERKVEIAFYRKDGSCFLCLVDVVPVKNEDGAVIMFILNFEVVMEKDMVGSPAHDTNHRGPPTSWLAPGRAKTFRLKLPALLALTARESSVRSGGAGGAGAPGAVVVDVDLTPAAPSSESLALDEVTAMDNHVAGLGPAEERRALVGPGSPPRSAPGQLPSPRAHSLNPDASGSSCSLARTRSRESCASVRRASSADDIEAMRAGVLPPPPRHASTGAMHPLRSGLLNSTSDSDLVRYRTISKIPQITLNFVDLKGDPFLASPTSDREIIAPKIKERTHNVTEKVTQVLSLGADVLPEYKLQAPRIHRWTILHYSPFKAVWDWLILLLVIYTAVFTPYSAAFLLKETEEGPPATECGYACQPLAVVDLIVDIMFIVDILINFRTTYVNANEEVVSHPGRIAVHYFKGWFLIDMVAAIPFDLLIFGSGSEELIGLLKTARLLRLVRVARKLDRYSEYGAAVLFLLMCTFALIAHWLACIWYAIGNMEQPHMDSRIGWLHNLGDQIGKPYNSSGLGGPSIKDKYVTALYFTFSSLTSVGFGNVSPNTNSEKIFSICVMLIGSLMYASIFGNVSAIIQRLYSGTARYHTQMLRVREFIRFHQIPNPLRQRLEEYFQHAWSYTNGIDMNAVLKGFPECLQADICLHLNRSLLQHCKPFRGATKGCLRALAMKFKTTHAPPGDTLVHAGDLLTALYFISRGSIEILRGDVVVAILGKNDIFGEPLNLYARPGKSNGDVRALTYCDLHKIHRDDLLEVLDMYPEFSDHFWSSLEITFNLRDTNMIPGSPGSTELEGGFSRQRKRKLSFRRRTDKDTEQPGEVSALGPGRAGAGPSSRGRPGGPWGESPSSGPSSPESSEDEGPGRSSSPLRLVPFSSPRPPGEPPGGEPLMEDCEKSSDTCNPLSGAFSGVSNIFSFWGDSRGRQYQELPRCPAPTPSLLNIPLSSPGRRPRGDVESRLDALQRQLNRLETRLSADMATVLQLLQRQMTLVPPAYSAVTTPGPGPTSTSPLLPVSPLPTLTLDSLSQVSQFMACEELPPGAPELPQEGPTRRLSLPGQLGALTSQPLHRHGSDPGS
T2 sequence (P23975 whole entry): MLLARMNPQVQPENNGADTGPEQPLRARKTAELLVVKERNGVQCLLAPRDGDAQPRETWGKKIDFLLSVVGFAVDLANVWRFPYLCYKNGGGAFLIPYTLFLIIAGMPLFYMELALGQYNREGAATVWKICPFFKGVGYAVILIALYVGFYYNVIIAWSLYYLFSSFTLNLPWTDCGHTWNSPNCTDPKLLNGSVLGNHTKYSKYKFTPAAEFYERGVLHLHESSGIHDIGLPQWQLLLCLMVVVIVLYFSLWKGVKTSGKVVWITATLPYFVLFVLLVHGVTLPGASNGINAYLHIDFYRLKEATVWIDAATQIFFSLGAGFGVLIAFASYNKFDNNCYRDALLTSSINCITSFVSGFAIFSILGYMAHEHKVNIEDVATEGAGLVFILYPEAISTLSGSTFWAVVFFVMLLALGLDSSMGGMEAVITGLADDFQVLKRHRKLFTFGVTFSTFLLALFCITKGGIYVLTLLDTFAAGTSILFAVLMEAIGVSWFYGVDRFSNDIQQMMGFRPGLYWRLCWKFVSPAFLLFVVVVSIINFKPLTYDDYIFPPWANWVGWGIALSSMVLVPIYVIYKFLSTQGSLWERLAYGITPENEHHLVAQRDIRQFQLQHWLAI
Sequence of Sigma intracellular receptor 2 (Q5BJF2 whole entry): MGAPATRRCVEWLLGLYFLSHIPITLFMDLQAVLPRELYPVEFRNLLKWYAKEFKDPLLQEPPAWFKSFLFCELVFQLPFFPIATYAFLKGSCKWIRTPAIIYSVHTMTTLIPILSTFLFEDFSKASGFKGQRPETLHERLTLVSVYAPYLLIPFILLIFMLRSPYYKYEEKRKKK

SMILES | Kp uu at 20 µM [1] | half-life [2] | Cmax [3] | solubility at 1.5 h, 100 µM [4] | AUC at 24 h [5] | AUC at 24 h [6] | half-life [7] | CLint scaled at 2 h, 10 µM [8] | Cmax [9] | CL/F [10] | half-life at 10 µM [11] | solubility at 1.5 h, 100 µM [12] | Ki [13] | Ki [14] | Papp B→A [15] | efflux ratio [17] | Ki [18] | Ki [19] | Ki [21] | Papp A→B [23] | further results
[2H]C([2H])([2H])Oc1ccc2c(c1)[C@@]13CCCC[C@@H]1[C@@H](C2)N(C([2H])([2H])[2H])CC3 | 10.8 | 4.9 h | 0.0055 µg/mL | 112 µM (≈ 31.1 µg/mL) | 0.0973 µg·h/mL | 0.015 µg·h/mL | 7.07 h | 0.283 L/h/kg | 0.0531 µg/mL | 110 L/h/kg | 4.4 h | 95.5 µM (≈ 26.5 µg/mL) |  |  |  |  |  |  |  |  | 
CN1CC[C@@]23CCCC[C@@H]2[C@@H]1Cc1ccc(OC(F)F)cc13 |  |  |  | > 100 µM |  |  |  | 0.296 L/h/kg |  |  | 4.22 h | 76 µM (≈ 23.4 µg/mL) | 0.186 µM | 1.28 µM | 9.79 nm/s | 0.77 | 0.568 µM | > 10 µM | > 10 µM | 12.8 nm/s | IC50 [16]: 0.055 µM; inhibition at 0.25 h, 10 µM [20]: 34.9%; IC50 [22]: > 10 µM
COc1ccc2c(c1)[C@@]13CCCC[C@@H]1[C@@H](C2)N(C)CC3 | 27.9 | 2.07 h | 0.0097 µg/mL | 94 µM (≈ 25.5 µg/mL) | 0.389 µg·h/mL | 0.0213 µg·h/mL | 2 h | 0.365 L/h/kg | 0.214 µg/mL | 180 L/h/kg | 3.42 h | 88 µM (≈ 23.9 µg/mL) |  | 0.862 µM | 12.1 nm/s |  | 0.073 µM | 0.624 µM | > 10 µM | 14.8 nm/s | Cp(f) [24]: 19.3%; inhibition at 0.25 h, 10 µM [20]: 0.1%; Cp(f) [25]: 21.6%; IC50 [22]: > 10 µM; Vd [26]: 589 L/kg
CN1CC[C@@]23CCCC[C@@H]2[C@@H]1Cc1ccc(C(F)(F)C(F)(F)F)cc13 |  |  |  | > 100 µM |  |  |  | 0.864 L/h/kg |  |  | 1.45 h | 77 µM (≈ 27.7 µg/mL) | > 10 µM | 1.4 µM | 8.33 nm/s | 1 | > 10 µM | > 10 µM | > 10 µM | 8.31 nm/s | 
[2H]C([2H])([2H])N1CC[C@@]23CCCC[C@@H]2[C@@H]1Cc1ccc(OC(F)F)cc13 |  |  |  | 101 µM (≈ 31.4 µg/mL) |  |  |  | 0.792 L/h/kg |  |  | 1.58 h | 83 µM (≈ 25.8 µg/mL) |  |  |  |  |  |  |  |  | 
[2H]C([2H])([2H])N1CC[C@@]23CCCC[C@@H]2[C@@H]1Cc1ccc(C(F)F)cc13 | 4.1 | 1.62 h | 0.066 µg/mL | 94 µM (≈ 27.7 µg/mL) | 4.06 µg·h/mL | 0.353 µg·h/mL | 2.65 h | 0.612 L/h/kg | 0.854 µg/mL | 8.1 L/h/kg | 2.03 h | 70 µM (≈ 20.6 µg/mL) |  |  |  |  |  |  |  |  | Cp(f) [24]: 28.8%; Cp(f) [25]: 9%; Vd [26]: 31 L/kg
[2H]C([2H])([2H])N1CC[C@@]23CCCC[C@@H]2[C@@H]1Cc1ccc(OC(F)(F)F)cc13 | 1.2 | 3.03 h | 0.032 µg/mL | 100 µM (≈ 32.8 µg/mL) | 5.81 µg·h/mL | 0.205 µg·h/mL | 2.45 h | 0.469 L/h/kg | 0.725 µg/mL | 12.1 L/h/kg | 2.67 h | 86 µM (≈ 28.2 µg/mL) |  |  |  |  |  |  |  |  | Cp(f) [24]: 40.2%; Cp(f) [25]: 2.1%; Vd [26]: 43 L/kg
CN1CC[C@@]23CCCC[C@@H]2[C@@H]1Cc1ccc(C(F)(F)F)cc13 |  |  |  | > 100 µM |  |  |  | 0.389 L/h/kg |  |  | 3.2 h | 77 µM (≈ 23.8 µg/mL) | 0.125 µM | 0.885 µM | 9.15 nm/s | 0.75 | 0.813 µM | > 10 µM | > 10 µM | 12.2 nm/s | IC50 [16]: 0.06 µM; inhibition at 0.25 h, 10 µM [20]: 5.1%; IC50 [22]: 1.04 µM
[2H]C([2H])([2H])N1CC[C@@]23CCCC[C@@H]2[C@@H]1Cc1ccc(C(F)(F)F)cc13 |  |  |  | 95 µM (≈ 29.7 µg/mL) |  |  |  | 0.924 L/h/kg |  |  | 1.34 h | 70 µM (≈ 21.9 µg/mL) |  |  |  |  |  |  |  |  | 
[2H]C([2H])([2H])N1CC[C@@]23CCCC[C@@H]2[C@@H]1Cc1ccc(C(F)(F)C(F)(F)F)cc13 |  |  |  | 82 µM (≈ 29.7 µg/mL) |  |  |  | 0.6 L/h/kg |  |  | 2.07 h | 70 µM (≈ 25.4 µg/mL) |  |  |  |  |  |  |  |  | 
CN1CC[C@@]23CCCC[C@@H]2[C@@H]1Cc1ccc(C(C)(F)F)cc13 |  |  |  | > 100 µM |  |  |  | 0.505 L/h/kg |  |  | 2.47 h | 90 µM (≈ 27.5 µg/mL) | 0.301 µM | 0.826 µM | 8.33 nm/s | 1.09 | 0.675 µM | > 10 µM | > 10 µM | 7.63 nm/s | 
CN1CC[C@@]23CCCC[C@@H]2[C@@H]1Cc1ccc(OC(F)(F)F)cc13 | 3.3 | 3.18 h | 0.012 µg/mL | > 100 µM | 9.46 µg·h/mL | 0.131 µg·h/mL | 2.8 h | 0.34 L/h/kg | 0.756 µg/mL | 19.1 L/h/kg | 3.67 h | 60 µM (≈ 19.5 µg/mL) | 0.048 µM | 0.833 µM | 11.2 nm/s | 1.13 | 0.757 µM | > 10 µM | > 10 µM | 9.89 nm/s | IC50 [16]: 0.031 µM; inhibition at 0.25 h, 10 µM [20]: 6.1%; IC50 [22]: > 10 µM; Vd [26]: 77 L/kg
[2H]C([2H])([2H])N1CC[C@@]23CCCC[C@@H]2[C@@H]1Cc1ccc(C(C)(F)F)cc13 |  |  |  | 95 µM (≈ 29.3 µg/mL) |  |  |  | 0.323 L/h/kg |  |  | 5.38 h | 67 µM (≈ 20.7 µg/mL) |  |  |  |  |  |  |  |  | 
CN1CC[C@@]23CCCC[C@@H]2[C@@H]1Cc1ccc(C(F)F)cc13 | 7.8 | 2.57 h | 0.027 µg/mL | > 100 µM | 4.93 µg·h/mL | 0.144 µg·h/mL | 3.33 h | 0.308 L/h/kg | 0.674 µg/mL | 17.3 L/h/kg | 4.05 h | > 100 µM | 0.051 µM | 0.353 µM | 11 nm/s | 0.81 | 0.145 µM | > 10 µM | 0.035 µM | 13.5 nm/s | IC50 [16]: 0.024 µM; inhibition at 0.25 h, 10 µM [20]: 12%; IC50 [22]: 0.944 µM; Vd [26]: 85 L/kg
CN1CC[C@]23CCCC[C@@H]2[C@H]1Cc1ccc(O)cc13 |  |  |  |  |  |  |  |  |  |  |  |  | 0.401 µM | > 10 µM |  |  | 0.118 µM | 0.486 µM | > 0.34 µM |  | 
